The subject of assay [1] is HCT116. The assay can be described thus: Real-time quantitative PCR (qPCR) of HCT116. The conditions noted are these: for inhibition of activation of inflammatory genes, mRNA / inhibition of activation of tumor growth genes (Wnt, oncogenes), mRNA: FadAc, 2 hrs incubation. The class given is cell-based, human. As to the method: (§1) Total RNA was extracted from CRC cells, xenografts, or clinical specimens. cDNA synthesis and RT-PCR were performed as previously described, using primers listed in Table 1. Data were analyzed by the ΔΔCt method and normalized to the GAPDH or Fn-specific 16S rRNA. To quantify the fadA gene copies, plasmid carrying fadA was serially diluted to 10^2-10^8 fadA copies/μl and used to generate standard curves for Ct values. The fadA gene copies in the clinical samples were calculated based on the standard curves. Each experiment was performed in triplicates and repeated at least three times.

In assay [2] the test system is Fn. Nature of the assay: Tissue culture attachment assay, Fn on HCT116. The class given is cell-based, Fusobacterium nucleatum. To be noted: for inhibition of Fn attachment of HCT116: MOI 50, 1 hr. The protocol: (§2) Cells were seeded in 24-well or 96-well plates at 8×10^4 cells or 2.5×10^4 cells per well in the growth medium and grown to 100% confluent. Bacteria were added to the cells at a multiplicity of infection (MOI) of 50. Following 1 hr incubation at 37° C. in 5% CO2, the monolayers were washed 3 times with D-PBS, pH 7.1, supplemented with Ca^2+ and Mg^2+. Cells were lyzed with water for 20 min at 37° C. Serial dilutions of the lysates were plated onto blood agar plates to enumerate the total cell-associated bacteria. For invasion assays, the bacteria were incubated with the monolayers at 37° C. for 4 hrs, followed by washes with PBS. Fresh media containing 300 μg/ml gentamicin and 200 μg/ml metronidazole were added to the monolayers and incubated for an additional hour to kill extracellular bacteria. The cells were then washed and lyzed with water as described above. The levels of attachment and invasion were expressed as the percentage of bacteria recovered following cell lysis relative to the total number of bacteria initially added. Each experiment was performed in triplicates and repeated at least twice.

Assay [3] relates to E-cadherin-mediated cellular signaling in HCT116. Nature of the assay: Subcellular fractions of HCT116, Western blot. The conditions noted are these: 50 μM inhibitor pre-incubated 1 hour, FadAc. In kind it is cell-based, human. From the text: The following antibodies were used: anti-FadA monoclonal antibody (mAb) 5G11-3G8 (Xu et al., 2007), mAb anti-CDH1 (Abcam or Cell Signaling Tech), polyclonal anti-phospho-CDH1 (ECM Biosciences), mAb anti-GAPDH (Invitrogen), mAb anti-β-catenin (R&D systems), polyclonal anti-phospho-β-catenin (Cell Signaling Tech), mAb anti-LEF/TCF1 (Invitrogen), mAb anti-NFkB (Invitrogen), mAb anti-Myc (Cell Signaling Tech), mAb anti-cyclin D1 (Cell Signaling Tech), mAb anti-EGFR (Cell Signaling Tech), mAb anti-GAPDH (Cell Signaling Tech), mAb anti-PCNA (Cell Signaling Tech), polyclonal goat-anti-mouse or goat-anti-rabbit secondary antibody conjugated with horseradish peroxidase (HRP) (Pierce Biotechnology). Peptides were synthesized by Neo Group, Inc (Cambridge, Mass.). Western blot analyses were performed as previously described.
Cells were incubated with 1 mg/ml of FadAc or mFadA followed by the extraction of subcellular fractions. When indicated, 50 μM of the corresponding protein tyrosine kinase inhibitor (Genistein) and clathrin inhibitor (Pitstop2) were pre-incubated with cells for 1 hour. Membrane, cytosolic and nuclei fractions were prepared using the Compartmental Protein Extraction kit (Millipore) according to the manufacturer's instructions.
A general note: A western blot detects proteins with antibodies after separation by electrophoresis.

The test system of assay [4] is Fn. The assay can be described thus: Tissue culture invasion assay, Fn into HCT116. In kind it is cell-based, Fusobacterium nucleatum. To be noted: for inhibition of Fn invasion of HCT116: MOI 50, 4 hrs. As to the method:
as §2

Assay [5] concerns HCT116. The assay can be described thus: Cell proliferation assay, HCT116. To be noted: bacteria at MOI 1000:1. In kind it is cell-based, human. The protocol:
(§3) CRC cells were seeded in 24-well plates at 1×10^4 cells per well in the growth medium. Cells were untreated, or incubated with FadAc or peptides at indicated concentration, or with bacteria at a multiplicity of infection (MOI) of 1000:1. Cell numbers were counted at 24-hour intervals using a hemocytometer. Each experiment was performed in triplicates and repeated at least twice.

Assay [6] concerns Fusobacterium nucleatum (Fn). The assay can be described thus: Fn invasion of endothelial cells. The class given is cell-based. The conditions noted are these: FIG. 8. The protocol:
as §2

Assay [7] deals with Fusobacterium nucleatum (Fn). The assay can be described thus: Fn attachment of endothelial cells. In kind it is cell-based. To be noted: FIG. 8. As to the method:
as §2

The subject of assay [8] is HCT116 xenografts. Nature of the assay: HCT116 xenograft tumor growth in nude mice. In kind it is in vivo. The conditions noted are these: 0.01 μmol peptide with FadAc. The protocol: (§4) The animal protocol was approved by the Case Western Reserve University Institutional Animal Care and Use Committee. An inoculum of 5×10^6 cells were injected s.c. and bilaterally into 4- to 6-week-old female nude mice (5 per group) as previously described. The mice were randomized to receive one of the following: FadAc or mFadA (each at 80 μg), BSA (0.01 μmol, i.e., 660 μg), or peptide (0.01 μmol), or bacteria at 1×10^7 cfu, at each inoculation site.

The subject of assay [9] is Fn. The assay can be described thus: Immunohistochemical staining of Fn-infected HCT116 xenografts. In kind it is in vivo, Fusobacterium nucleatum. To be noted: wild-type Fn injected into HCT116 xenografts. As to the method: Immunofluorescent staining of cells was performed as previously described. Mouse anti-β-catenin mAb and Alexa Fluor 634-conjugated goat anti-mouse polyclonal antibodies were used. IHC analysis of xenograft tumors were performed as previously described, using rabbit anti-Fn polyclonal antibodies. Pre-immune serum from the same rabbit was used as control.
as §4

Assay [10] deals with HCT116 xenografts. The assay can be described thus: qPCR of HCT116 xenografts. In kind it is in vivo, mice. To be noted: FadAc or wild-type Fn. The protocol: as §4, §1
Background: In qPCR the cycle at which signal appears reflects the starting amount.

The subject of assay [11] is RKO cells transfected with CDH1. Nature of the assay: Cell proliferation assay, RKO cells transfected with CDH1. The conditions noted are these: bacteria at MOI 1000:1. In kind it is cell-based, human. As to the method:
CDH1 transfections were performed as previously described. siRNA assays were performed using the FlexiTube siRNA anti-CDH1 or anti-beta-catenin reagent and All Stars FlexiTube Control siRNA from Qiagen (Valencia, Calif.) according the manufacturer's instructions.
as §3

For the molecule `O=C1NC(=NS(=O)(=O)c2cccc3ccccc23)S/C1=C\c1ccc(Br)cc1` [Pitstop2], in the assay with HCT116 [1], the “inhibition of activation of inflammatory genes, mRNA” value is given as “only inhibited the inflammatory genes” and the “inhibition of activation of tumor growth genes (Wnt, oncogenes), mRNA” value was “not”. Further, the “effect on Fn-stimulated expression of NF-kappaB and cytokines IL-6, 8, and 18” value in the assay with HCT116 [1] (wild type Fn) is reported as “abolished”. Moreover, the “inhibition of Fn attachment of HCT116” value in the assay with Fn [2] is reported as “without affecting attachment”. For the same molecule, in assay [3], the “effect of inhibitor on CRT activation (β-catenin translocation, LEF/TCF, Wnt and oncogenes)” value is listed as “unaffected”; the “effect of inhibitor on E-cadherin phosphorylation” value was “did not affect”; the “effect of inhibitor on FadA and E-cadherin internalization” value is reported as “inhibited”; the “effect of inhibitor on FadA binding to the membranes” value is “did not affect”. In assay [3], the “effect of inhibitor on NF kappaB activation” value is “no NF kappaB activation was observed”. Further, the “inhibition of Fn invasion of HCT116” value in the assay on Fn [4] is recorded as “prevented”.
With ASANWTIQYND [inhibitory peptide], the “inhibition of Fn-stimulated HCT116 growth” value in the assay with HCT116 [5] is given as “inhibited”. The “block of Fn invasion of endothelial cells” value in [6] was “block”. Further, the “inhibition of Fn attachment of HCT116” value in the assay with Fn [2] is “minimum required”. In addition, in the assay on Fn [4], the “inhibition of Fn invasion of HCT116” value is “minimum required”. In addition, the “block of Fn attachment of endothelial cells” value in assay [7] is on record as “block”. The “effect of peptide on FadAc-stimulated tumor growth” value in the assay on HCT116 xenografts [8] was “No increase was detected”. Besides, in the assay on Fn [9], the “prevention of Fn invasion into tumor tissues” value was “prevented”. In addition, in the assay with HCT116 xenografts [10], the “inhibition of stimulation of tumor growth genes and inflammatory genes in xenografts” value was “inhibited”. Also, the “suppression of Fn growth stimulation of CDH1-transfected RKO cells” value in assay [11] was “diminished”.
For the molecule `O=c1c(-c2ccc(O)cc2)coc2cc(O)cc(O)c12` [Genistein], in the assay on HCT116 [1], the “inhibition of activation of inflammatory genes, mRNA” value is “inhibited” and the “inhibition of activation of tumor growth genes (Wnt, oncogenes), mRNA” value is given as “inhibited”. Besides, in [3], the “effect of inhibitor on CRT activation (β-catenin translocation, LEF/TCF, Wnt and oncogenes)” value is “abolished”; the “effect of inhibitor on E-cadherin phosphorylation” value is “prevented”; the “effect of inhibitor on FadA and E-cadherin internalization” value is listed as “prevented”; the “effect of inhibitor on FadA binding to the membranes” value is recorded as “abolished”.

B1: GST-EC5 fusion protein: purified GST fusion protein carrying the EC5 domain of E-cadherin (protein)
chain: IPEPRTIFFCERNPKPQVINIIDADLPPNTSPFTAELTHGASANWTIQYNDPTQESIILKPKMALEVGDYKINLKLMDNQNKDQVTTLEVSVCDCEGAAGVCRK
modifications: left off: a dimerising Fc or GST
notes: purified GST fusion protein carrying the EC5 domain of E-cadherin
B1: in the assay with HCT116 [5], the “inhibition of Fn-stimulated HCT116 growth” value is on record as “inhibited”. Moreover, in the assay with Fn [2], the “concentration of maximum inhibition of Fn attachment of HCT116” value turned out to be 0.1 µM and the “inhibition of Fn attachment of HCT116” value is on record as “inhibited by purified GST-EC5 fusion protein in a dose-dependent manner”. Besides, in the assay on Fn [4], the “concentration of maximum inhibition of Fn invasion of HCT116” value is 0.1 µM and the “inhibition of Fn invasion of HCT116” value is “inhibited by purified GST-EC5 fusion protein in a dose-dependent manner”. In assay [11], the “suppression of Fn growth stimulation of CDH1-transfected RKO cells” value is reported as “diminished”.

Source of the values: patent US9670548B2, “Methods of diagnosing colorectal cancer by detecting FADA expression” (priority 2013, dated 2017).
